According to patent publication US20250282768A1 (Janssen Pharmaceutica NV, priority 2022, published 2025):

System: p-IKKa levels in L363 (NIK translocated multiple myeloma) cells
Test: Assay 2: Effect of compounds on p-IKKa levels in L363 (NIK translocated multiple myeloma) cells
Format: cell-based
Conditions: Homo sapiens, L-363, 6 h, read-out: Assay 2 IC50 (nM), p-IKKa (Ser 176/180) in BAFF stimulated L363 cells with MG132, 6 h; average if tested more than once
In short: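 Read-out is p-IKKa Ser176/180 by AlphaLISA SureFire in lysates. Cells were BAFF-primed (250 ng/ml) overnight or left unstimulated, then exposed 6 h at 37 °C to compound with MG132 (10 μM), 0.3% DMSO. IC50 from sigmoidal curve fit, normalized between stimulated and unstimulated controls.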

## Cc1ncc(C#N)cc1Nc1nccc(-c2cccc(-c3cc([C@]4(O)CCN(C)C4=O)on3)n2)n1 [Example 471, (R)-5-((4-(6-(5-(3-Hydroxy-1-methyl-2-oxopyrrolidin-3-yl)isoxazol-3-yl)pyridin-2-yl)pyrimidin-2-yl)amino)-6-methylnicotinonitrile]
  IC50: < 50 nM

## Cc1ccc(O)c(Nc2nccc(-c3cccc(-c4cc([C@]5(O)CCN(C)C5=O)on4)n3)n2)n1 [Example 268, (R)-3-Hydroxy-3-(3-(6-(2-((3-hydroxy-6-methylpyridin-2-yl)amino)pyrimidin-4-yl)pyridin-2-yl)isoxazol-5-yl)-1-methylpyrrolidin-2-one]
  IC50: > 500 nM

## CN1CC[C@@](O)(c2cc(-c3cccc(-c4ccnc(Nc5cnc6cccnn56)n4)n3)no2)C1=O [Example 218, (R)-3-Hydroxy-3-(3-(6-(2-(imidazo[1,2-b]pyridazin-3-ylamino)pyrimidin-4-yl)pyridin-2-yl)isoxazol-5-yl)-1-methylpyrrolidin-2-one]
  IC50: > 500 nM

## COc1nn(C(CO)CO)cc1Nc1nccc(-c2cccc(-c3cc([C@]4(O)CCN(C)C4=O)on3)n2)n1 [Example 9, (R)-3-(3-(6-(2-((1-(1,3-Dihydroxypropan-2-yl)-3-methoxy-1H-pyrazol-4-yl)amino)pyrimidin-4-yl)pyridin-2-yl)isoxazol-5-yl)-3-hydroxy-1-methylpyrrolidin-2-one]
  IC50: 50 to 500 nM

## CN1CC[C@@](O)(c2cc(-c3cccc(-c4ccnc(NC5(C6CC6)CC5)n4)n3)no2)C1=O [Example 443, (R)-3-(3-(6-(2-([1,1′-Bi(cyclopropan)]-1-ylamino)pyrimidin-4-yl)pyridin-2-yl)isoxazol-5-yl)-3-hydroxy-1-methylpyrrolidin-2-one]
  IC50: 50 to 500 nM

## Cc1nn(C2CCN(C)CC2)cc1Nc1nccc(-c2cccc(-c3cc([C@]4(O)CCN(C)C4=O)on3)n2)n1 [Example 252]
  IC50: 50 to 500 nM

## COc1nn(C)cc1Nc1nccc(-c2cccc(-c3cc([C@]4(O)CCN(C)C4=O)on3)c2)n1 [Example 17, (R)-3-Hydroxy-3-(3-(3-(2-((3-methoxy-1-methyl-1H-pyrazol-4-yl)amino)pyrimidin-4-yl)phenyl)isoxazol-5-yl)-1-methylpyrrolidin-2-one]
  IC50: 50 to 500 nM

## CN1CC[C@@](O)(c2cc(-c3cccc(-c4ccnc(Nc5cnn6c5CCC6)n4)n3)on2)C1=O [Example 134, (R)-3-(5-(6-(2-((5,6-Dihydro-4H-pyrrolo[1,2-b]pyrazol-3-yl)amino)pyrimidin-4-yl)pyridin-2-yl)isoxazol-3-yl)-3-hydroxy-1-methylpyrrolidin-2-one]
  IC50: < 50 nM

## CN1CC[C@@](O)(c2cc(-c3cccc(-c4ccnc(Nc5ccccn5)n4)n3)no2)C1=O [Example 248, (R)-3-Hydroxy-1-methyl-3-(3-(6-(2-(pyridin-2-ylamino)pyrimidin-4-yl)pyridin-2-yl)isoxazol-5-yl)pyrrolidin-2-one]
  IC50: 50 to 500 nM

## CN1CC[C@@](O)(c2cc(-c3cccc(-c4ccnc(Nc5nn(C)c6nccnc56)n4)c3)no2)C1=O [Example 422, (R)-3-Hydroxy-1-methyl-3-(3-(3-(2-((1-methyl-1H-pyrazolo[3,4-b]pyrazin-3-yl)amino)pyrimidin-4-yl)phenyl)isoxazol-5-yl)pyrrolidin-2-one]
  IC50: > 500 nM

## CN1CC[C@@](O)(c2cc(-c3cccc(-c4nc(Nc5cnn(C)c5)ncc4F)c3)no2)C1=O [Example 423, (R)-3-(3-(3-(5-Fluoro-2-((1-methyl-1H-pyrazol-4-yl)amino)pyrimidin-4-yl)phenyl)isoxazol-5-yl)-3-hydroxy-1-methylpyrrolidin-2-one]
  IC50: > 500 nM

## Cc1nn(C2CCOCC2)cc1Nc1nccc(-c2cccc(-c3cc([C@]4(O)CCN(C)C4=O)on3)n2)n1 [Example 233, (R)-3-Hydroxy-1-methyl-3-(3-(6-(2-((3-methyl-1-(tetrahydro-2H-pyran-4-yl)-1H-pyrazol-4-yl)amino)pyrimidin-4-yl)pyridin-2-yl)isoxazol-5-yl)pyrrolidin-2-one]
  IC50: < 50 nM

## CN1CC[C@](O)(c2csc(-c3cccc(-c4ccnc(Nc5ccn(C)n5)n4)n3)n2)C1=O (single isomer, unassigned) [Example 80]
  IC50: > 500 nM

## COc1ccc(Nc2nccc(-c3cccc(-c4cc([C@]5(O)CCN(C)C5=O)on4)n3)n2)cn1 [Example 285, (R)-3-Hydroxy-3-(3-(6-(2-((6-methoxypyridin-3-yl)amino)pyrimidin-4-yl)pyridin-2-yl)isoxazol-5-yl)-1-methylpyrrolidin-2-one]
  IC50: < 50 nM

## CN(C)Cc1ccc(Nc2nccc(-c3cccc(-c4cc([C@]5(O)CCN(C)C5=O)on4)n3)n2)nc1 [Example 274, (R)-3-(3-(6-(2-((5-((Dimethylamino)methyl)pyridin-2-yl)amino)pyrimidin-4-yl)pyridin-2-yl)isoxazol-5-yl)-3-hydroxy-1-methylpyrrolidin-2-one]
  IC50: 50 to 500 nM

## CN1CC(F)(F)[C@@](O)(c2cc(-c3cccc(-c4ccnc(Nc5cnn6c5CCCC6)n4)n3)no2)C1=O [Example 239, (R)-4,4-Difluoro-3-hydroxy-1-methyl-3-(3-(6-(2-((4,5,6,7-tetrahydropyrazolo[1,5-a]pyridin-3-yl)amino)pyrimidin-4-yl)pyridin-2-yl)isoxazol-5-yl)pyrrolidin-2-one]
  IC50: 50 to 500 nM

## CC(Nc1nccc(-c2cccc(-c3cc([C@]4(O)CCN(C)C4=O)on3)n2)n1)c1ncco1 (stereo partly drawn) [Example 371, (3R)-3-Hydroxy-1-methyl-3-(3-(6-(2-((1-(oxazol-2-yl)ethyl)amino)pyrimidin-4-yl)pyridin-2-yl)isoxazol-5-yl)pyrrolidin-2-one]
  IC50: 50 to 500 nM

## CN1CC[C@@](O)(c2cc(-c3cccc(-c4ccnc(Nc5cc6n(n5)CCOC6)n4)c3)no2)C1=O [Example 22, (R)-3-(3-(3-(2-((6,7-Dihydro-4H-pyrazolo[5,1-c][1,4]oxazin-2-yl)amino)pyrimidin-4-yl)phenyl)isoxazol-5-yl)-3-hydroxy-1-methylpyrrolidin-2-one]
  IC50: > 500 nM

## C[C@H](Nc1nccc(-c2cccc(-n3cc([C@]4(O)CCN(C)C4=O)nn3)n2)n1)c1cnn(C)c1 (single isomer, unassigned) [Example 119]
  IC50: < 50 nM

## CN1CC[C@@](O)(c2cc(-c3cccc(-c4ccnc(N[C@@H](CO)c5ccccn5)n4)n3)no2)C1=O [Example 387, (R)-3-Hydroxy-3-(3-(6-(2-(((R)-2-hydroxy-1-(pyridin-2-yl)ethyl)amino)pyrimidin-4-yl)pyridin-2-yl)isoxazol-5-yl)-1-methylpyrrolidin-2-one]
  IC50: > 500 nM

## COCc1nc(Nc2nccc(-c3cccc(-c4cc([C@]5(O)CCN(C)C5=O)on4)n3)n2)n(C)n1 [Example 271, (R)-3-Hydroxy-3-(3-(6-(2-((3-(methoxymethyl)-1-methyl-1H-1,2,4-triazol-5-yl)amino)pyrimidin-4-yl)pyridin-2-yl)isoxazol-5-yl)-1-methylpyrrolidin-2-one]
  IC50: > 500 nM

## CO[C@@H]1COC[C@H]1Nc1nccc(-c2cccc(-c3cc([C@]4(O)CCN(C)C4=O)on3)n2)n1 [Example 354, (R)-3-Hydroxy-3-(3-(6-(2-(((3R,4S)-4-methoxytetrahydrofuran-3-yl)amino)pyrimidin-4-yl)pyridin-2-yl)isoxazol-5-yl)-1-methylpyrrolidin-2-one]
  IC50: 50 to 500 nM

## C[C@@H](O)[C@@H](Nc1nccc(-c2cccc(-c3cc([C@]4(O)CCN(C)C4=O)on3)n2)n1)c1ccccc1 [Example 152, (R)-3-Hydroxy-3-(3-(6-(2-(((1 S,2R)-2-hydroxy-1-phenylpropyl)amino)pyrimidin-4-yl)pyridin-2-yl)isoxazol-5-yl)-1-methylpyrrolidin-2-one]
  IC50: 50 to 500 nM

## Cc1cnc(Nc2cnn(C)c2)nc1-c1cccc(-c2cc([C@]3(O)CCN(C)C3=O)on2)n1 [Example 208, (R)-3-Hydroxy-1-methyl-3-(3-(6-(5-methyl-2-((1-methyl-1H-pyrazol-4-yl)amino)pyrimidin-4-yl)pyridin-2-yl)isoxazol-5-yl)pyrrolidin-2-one]
  IC50: > 500 nM

## C[C@@H](Nc1nccc(-c2cccc(-c3cc([C@]4(O)CCN(C)C4=O)on3)n2)n1)c1ccn2ccnc2c1 (single isomer, unassigned) [Example 164]
  IC50: > 500 nM

## CN1CC[C@@](O)(c2cc(-c3cccc(-c4ccnc(Nc5ccn(CCF)n5)n4)n3)no2)C1=O [Example 60, (R)-3-(3-(6-(2-((1-(2-Fluoroethyl)-1H-pyrazol-3-yl)amino)pyrimidin-4-yl)pyridin-2-yl)isoxazol-5-yl)-3-hydroxy-1-methylpyrrolidin-2-one]
  IC50: < 50 nM

## CN1CC[C@@](O)(c2cc(-c3cc(C(F)(F)F)cc(-c4ccnc(Nc5ccn(C)n5)n4)n3)no2)C1=O [Example 2, (R)-3-Hydroxy-1-methyl-3-(3-(6-(2-((1-methyl-1H-pyrazol-3-yl)amino)pyrimidin-4-yl)-4-(trifluoromethyl)pyridin-2-yl)isoxazol-5-yl)pyrrolidin-2-one]
  IC50: < 50 nM

## Cc1cnn(-c2nccc(-c3cccc(-c4cc([C@]5(O)CCN(C)C5=O)on4)n3)n2)c1N [Example 35, (R)-3-(3-(6-(2-(5-Amino-4-methyl-1H-pyrazol-1-yl)pyrimidin-4-yl)pyridin-2-yl)isoxazol-5-yl)-3-hydroxy-1-methylpyrrolidin-2-one]
  IC50: > 500 nM

## CN1CC[C@@](O)(c2cc(-c3cccc(-c4ccnc(N[C@H]5CCCOC5)n4)n3)no2)C1=O [Example 454, (R)-3-Hydroxy-1-methyl-3-(3-(6-(2-(((S)-tetrahydro-2H-pyran-3-yl)amino)pyrimidin-4-yl)pyridin-2-yl)isoxaozl-5-yl)pyrrolidin-2-one]
  IC50: 50 to 500 nM

## CN1CC[C@@](O)(c2cc(-c3cccc(-c4ccnc(Nc5ccn(C)n5)n4)c3F)no2)C1=O [Example 426, (R)-3-(3-(2-Fluoro-3-(2-((1-methyl-1H-pyrazol-3-yl)amino)pyrimidin-4-yl)phenyl)isoxazol-5-yl)-3-hydroxy-1-methylpyrrolidin-2-one]
  IC50: > 500 nM
